The record followed here is patent US11540515B2, “Use of dialkoxybenzenes for control of honey bee mite varroa destructor” (Simon Fraser University, priority 2018, dated 2023).

Entries after “also recorded” stand apart in the source; their conditions may differ. A value given as a limit tells only on which side of the number the result lay.

Series [1] concerns Varroa. Briefly: Choice bioassay (forager vs nurse bee) in petri dish. Format: in vivo, Varroa destructor. As to conditions: in presence of compound, monitored for 3 hours. How it is done: Functional activity of the compound was performed using choice bioassay. Briefly, in the presence of the synthetic compound or solvent as a control, the mites were given a choice of two bees (a forager and a nurse) in a petri dish (90 mm diameter and 17 mm deep glass). The movement of Varroa and its host preference were monitored at every hour for 3 hours.

The test system of series [2] is Varroa. In words: Example 5 Varroa death and paralysis assay, single compounds and blend. Set-up: species or system Varroa destructor. As to conditions: in vivo. The procedure: Assays were done in 9 cm glass Petri dishes. A 2.5×2.5 cm piece of Parafilm was stuck to the lid of the dish, in the middle. 120 μL water were put on filter paper in the middle of the plate. The Parafilm received 10 μL of hexane, either pure (controls) or with the compound (treatments). The bottom of the dish received one freshly thawed nurse and one freshly thawed forager, placed at opposite sides. One mite was placed between the nurse and the forager, the lid was closed and groups of dishes were placed in an incubator at 30° C. Observation times were at 3 h, 5 h and 20 h. Mites were scored for whether the mite could move normally, was paralyzed (had difficulty moving) or dead (not moving). Four types of experiment were performed in the dishes: i) dose response assays with a single compound at different doses of compound on the Parafilm (1 ng, 10 ng, 100 ng, 1 μg, 10 μg, 100 μg, 1 mg) an assay with blends of compounds 3c{3,6} and 3c{6,6} (pure or 1:1 blend) at 0.5 mg and […].

For series [3], the system named is Varroa mites. Briefly: Evaluation of acaricidal effect: emerging bees loaded with Varroa mites in glass petri dish, compound on Parafilm. Format: in vivo, Varroa destructor. How it is done:
The effect of the compounds was checked in free moving-mites freshly collected from the bottom board using fine paint brush. All collected Varroa were kept on emerging bees at room temperature until the experiment.
Compounds (code-labeled, Table 1) were prepared in hexane:ethyl acetate (1:1) in 10 mM concentration according to instructions. Dilutions only of compound “A” was prepared. […] This setup enabled the testing of all the compounds and to save the mites.
The assay was conducted in glass petri dish (90 mm diameter and 17 mm deep glass) containing moistened filter paper. Five emerging bees loaded with two Varroa mites were put into each plate. The bees were provided with candy (60% of pollen and 40% sugar). 10 μl or 30 μl volume of each compound or control mix was placed on Parafilm paper (5×5 cm) on the plates cover.

Series [4] has as its system Varroa mites phoretic on young bees. Briefly: Example 2 assay on mites phoretic on young bees (mite fall). Format: in vivo, Varroa destructor. Particulars: 100 microgram/μl solution and dilutions; end of experiment. How it is done:
(§1) The experiments were conducted in glass petri dish under control environment as described above in Example 1. Two sets of experiments were conducted compound 3c{3,6}:
(§2) 2. Assay on mites phoretic on young bees. In this experiment 100 microgram/μ1 solution and its dilutions were used. Two mites were placed on each living young bee.
(§3) In the second assay the percentage of mites dropping from bees as function of time was measured (FIG. 2).

For series [5], the system named is Varroa mites. Briefly: Example 6 behavioral dose response bio-assays of Varroa mites. Format: in vivo. From the text: Foragers were collected at the entrance of one or more honey bee hives by aspiration into a jar, when bees were flying back to the colony.
Initially, nurses were collected from an open brood frame of a honey bee hive. Bees apparently attending the brood were targeted for collection. As time passed and temperatures started to drop no open brood was observed, therefore subsequent collections targeted bees around sealed brood. At the end of the sampling period no sealed brood was present, so bees taken from the middle frame of a brood chamber were considered nurses.
Both foragers and nurses were immediately transferred to individual plastic cages (118×98×81 mm: H×W×D), fed with syrup (2:1) and kept overnight in an incubator at 30° C. and 70% RH. Next day, cages were inspected for any dead bees to be removed before freeze killing the bees on dry ice.
For Varroa mite collection, adult bees were taken from the brood chamber's central frames of a mite-infested hive using a glass jar. Bees were fed with syrup (2:1), and kept in an incubator at 30° C. and 70% RH until needed. First collections were made from frames with open and sealed brood, later only from sealed brood frames.
Mite-infested bees in the glass jar were dusted with icy sugar and shaken over a large plastic weighing boat. Dislodged Varroa were immediately transferred with a fine paint brush to a wet filter paper in a plastic petri dish to avoid desiccation. Individual mites were placed then onto the middle of a glass petri dish bottom (10 cm diameter) with a fresh freeze-killed forager or nurse bee on opposite sides of the plate. Synthesized compounds were applied onto a 1 cm^2 Parafilm square attached to the center of the petri dish cover's inner face, Hexane was used as control.
The bio-assays with a forager and a nurse bee, Varroa mite, and synthesized compounds were set in glass petri dishes placed into an incubator at 30° C. and 70% relative humidity. […] Mite paralysis and death were recorded after 3 h and 5 h.

The next series relates to Varroa destructor mites. Briefly: Example 3 paralysis assays in petri dishes (dose response, screen, blends). Format: in vivo. The procedure:
Paralysis assays. These assays were done in 10 cm glass Petri dishes. A 3×3 cm piece of Parafilm was stuck to the lid of the dish, in the middle. The Parafilm received […], either pure (controls) or with the compound (treatments). The bottom of the dish received one freshly thawed nurse and one freshly thawed forager, placed ˜3 cm from the center of the dish. One mite was placed between the nurse and the forager, the lid was closed and groups of dishes were placed in an incubator at 30° C. Humidity levels were kept at around 35-40%.
Observation times were 3 h and 5 h. Mites were scored for whether the mite could move normally, was paralyzed (had difficulty moving) or dead (not moving).
Each assay was done in 5 technical replicates, in two biological replicates. Thus, each biological replicate was scored out of 5.
Experiments were performed in the dishes: i) dose response assays with a single compound at different doses of compound on the Parafilm (1 ng, 10 ng, 100 ng, 1 μg, 10 μg, 100 μg, 1 mg and 10 mg), ii) a screen with six compounds, all at a 1 mg dose, iii) an assay with blends of compounds 3c{3,6} and 3c{6,6}, and iv) one assay without bees (only to check for mite paralysis and death), with compounds 3c{3,6} and 3c{6,6}(pure or 1:1 blend), at 0.5 and 1 mg doses.

Another series deals with young bees. In words: Example 2 assay on mites phoretic on young bees: condition of the bees. Format: in vivo, Apis mellifera. Particulars: end of experiment. How it is done:
as §1, §2, §3

Turning to `C=CCOc1ccc(OCCC)cc1` [3c{3,6}, 1-allyloxy-4-propoxybenzene], the “ability of Varroa to reach any host” value in the series with Varroa [1] is “decreased”. Also, the acaricidal activity alone entry in the series on Varroa [2] is given as “acaricidal”. Also, the “miticidal effect of dilutions” value in the series with Varroa mites [3] (dilutions of 10 mM solution, any concentration) is “no miticidal effect”. Further, the acaricidal effect result in the series with Varroa mites [3] (highest amount tested (30 μl), end of 24 h) is given as “clear acaricidal effect”. Besides, the “mites dropping from bees as function of time (FIG. 2)” value in series [4] is “dropped dead off the bees”. Besides, in the series with Varroa mites [5] (100 μg), the mites dead entry was “half of the mites dead”. In the series with Varroa mites [5] (1 mg), the mite paralysis/mortality is given as 100% and the “mite paralysis/mortality (words)” value was “total effectivity; also recorded: all mites”. The “doses at which mites were paralyzed or killed” value in the series with Varroa mites [5] (FIG. 9 / FIG. 10) is at least 10 µg. Also, the “paralysis and mite death in screen” value with Varroa destructor mites (1 mg dose, 3 h) was “most reliable mite paralysis”. Besides, the “net paralysis+death of mites, comparison of compounds” value in the series on Varroa destructor mites (0.5 and 1 mg/treatment) is “more active than 3c{6,6}”. The “EC50 for paralysis and eventual death of mites” value in the series on Varroa destructor mites (neat compound on the source, vapors only, 3 h) is 41.5 µg. The condition of bees entry in the series on young bees is recorded as “remained in perfect shape”.
